# Laboratory results: ChEMBL document CHEMBL4819125, “Synthesis and anti-proliferation activity of mogrol derivatives bearing quinoline and triazole moieties” (Bioorg Med Chem Lett, 2021)
# Activity calls are given as the source filed them. The rule behind the calls is not given here.
# Legend:
# A549 [1] = assay: Induction of apoptosis in human A549 cells assessed as viable cells at 3.75 uM incubated for 72 hrs by annexin V-FITC and PI staining based flow cytometry analysis (reference value: 95.98 %); assay type: functional; details: read-out: Activity
# A549 [2] = assay: Effect on STAT3 expression in human A549 cells at 3.75 to 15 uM incubated for 72 hrs by Western blot analysis; assay type: functional, cell-based; details: dose 3.75-15 µM
# A549 [3] = assay: Induction of apoptosis in human A549 cells assessed as late apoptotic cells at 15 uM incubated for 72 hrs by annexin V-FITC and PI staining based flow cytometry analysis (reference value: 0.5 %); assay type: functional
# A549 [4] = assay: Induction of apoptosis in human A549 cells assessed as late apoptotic cells incubated for 72 hrs by annexin V-FITC and PI staining based flow cytometry analysis; assay type: functional, cell-based; details: dose 3.75-15 µM
# A549 [5] = assay: Induction of apoptosis in human A549 cells assessed as late apoptotic cells at 3.75 uM incubated for 72 hrs by annexin V-FITC and PI staining based flow cytometry analysis (reference value: 0.5 %); assay type: functional
# A549 [6] = assay: Induction of cell cycle arrest in human A549 cells assessed as G2/M phase at 15 uM incubated for 72 hrs by PI staining based flow cytometry analysis (reference value: 14.78 %); assay type: functional
# [7] = molecular target: Signal transducer and activator of transcription 3 (Homo sapiens) (UniProt P40763); assay: Inhibition of STAT3 in human A549 cells assessed as reduction in STAT3 phosphorylation incubated for 72 hrs by Western blot analysis; assay type: cell-based; details: dose 3.75-15 µM
# A549 [8] = assay: Induction of cell cycle arrest in human A549 cells assessed as G0/G1 phase at 15 uM incubated for 72 hrs by PI staining based flow cytometry analysis (reference value: 53.87 %); assay type: functional
# A549 [9] = assay: Antiproliferative activity against human A549 cells assessed as reduction in cell growth at 30 uM by CCK8 assay relative to control; assay type: functional
# A549 [10] = assay: Induction of apoptosis in human A549 cells assessed as viable cells at 7.5 uM incubated for 72 hrs by annexin V-FITC and PI staining based flow cytometry analysis (reference value: 95.98 %); assay type: functional; details: read-out: Activity
# A549 [11] = assay: Induction of cell cycle arrest in human A549 cells assessed as G0/G1 phase at 7.5 uM incubated for 72 hrs by PI staining based flow cytometry analysis (reference value: 53.87 %); assay type: functional
# A549 [12] = assay: Induction of cell cycle arrest in human A549 cells assessed as S phase at 7.5 uM incubated for 72 hrs by PI staining based flow cytometry analysis (reference value: 31.35 %); assay type: functional
# A549 [13] = assay: Induction of cell cycle arrest in human A549 cells assessed as S phase at 3.75 uM incubated for 72 hrs by PI staining based flow cytometry analysis (reference value: 31.35 %); assay type: functional
# A549 [14] = assay: Induction of cell cycle arrest in human A549 cells assessed as S phase at 15 uM incubated for 72 hrs by PI staining based flow cytometry analysis (reference value: 31.35 %); assay type: functional
# A549 [15] = assay: Induction of apoptosis in human A549 cells assessed as early apoptotic cells at 7.5 uM incubated for 72 hrs by annexin V-FITC and PI staining based flow cytometry analysis (reference value: 2.25 %); assay type: functional
# NCI-H460 = assay: Antiproliferative activity against human NCI-H460 cells assessed as reduction in cell growth at 30 uM by CCK8 assay relative to control; assay type: functional
# A549 [16] = assay: Induction of apoptosis in human A549 cells assessed as late apoptotic cells at 7.5 uM incubated for 72 hrs by annexin V-FITC and PI staining based flow cytometry analysis (reference value: 0.5 %); assay type: functional
# A549 [17] = assay: Induction of apoptosis in human A549 cells assessed as early apoptotic cells at 15 uM incubated for 72 hrs by annexin V-FITC and PI staining based flow cytometry analysis (reference value: 2.25 %); assay type: functional
# A549 [18] = assay: Induction of apoptosis in human A549 cells assessed as viable cells at 15 uM incubated for 72 hrs by annexin V-FITC and PI staining based flow cytometry analysis (reference value: 95.98 %); assay type: functional; details: read-out: Activity
# A549 [19] = assay: Induction of cell cycle arrest in human A549 cells assessed as G2/M phase at 7.5 uM incubated for 72 hrs by PI staining based flow cytometry analysis (reference value: 14.78 %); assay type: functional
# A549 [20] = assay: Induction of apoptosis in human A549 cells assessed as early apoptotic cells incubated for 72 hrs by annexin V-FITC and PI staining based flow cytometry analysis; assay type: functional, cell-based; details: dose 3.75-15 µM
# A549 [21] = assay: Induction of apoptosis in human A549 cells assessed as necrotic cells at 7.5 uM incubated for 72 hrs by annexin V-FITC and PI staining based flow cytometry analysis (reference value: 1.27 %); assay type: functional
# A549 [22] = assay: Induction of cell cycle arrest in human A549 cells assessed as G2/M phase at 3.75 uM incubated for 72 hrs by PI staining based flow cytometry analysis (reference value: 14.78 %); assay type: functional
# A549 [23] = assay: Antiproliferative activity against human A549 cells assessed as reduction in cell growth by CCK8 assay; assay type: functional, cell-based
# A549 [24] = assay: Induction of cell cycle arrest in human A549 cells assessed as G0/G1 phase at 3.75 uM incubated for 72 hrs by PI staining based flow cytometry analysis (reference value: 53.87 %); assay type: functional
# A549 [25] = assay: Induction of cell cycle arrest in human A549 cells assessed as G0/G1 phase incubated for 72 hrs by PI staining based flow cytometry analysis; assay type: functional; details: dose 3.75-15 µM
# A549 [26] = assay: Induction of apoptosis in human A549 cells assessed as necrotic cells at 3.75 uM incubated for 72 hrs by annexin V-FITC and PI staining based flow cytometry analysis (reference value: 1.27 %); assay type: functional
# A549 [27] = assay: Induction of apoptosis in human A549 cells assessed as early apoptotic cells at 3.75 uM incubated for 72 hrs by annexin V-FITC and PI staining based flow cytometry analysis (reference value: 2.25 %); assay type: functional
# A549 [28] = assay: Induction of apoptosis in human A549 cells assessed as necrotic cells at 15 uM incubated for 72 hrs by annexin V-FITC and PI staining based flow cytometry analysis (reference value: 1.27 %); assay type: functional
# Sequence of Signal transducer and activator of transcription 3 (Homo sapiens) (P40763 whole entry): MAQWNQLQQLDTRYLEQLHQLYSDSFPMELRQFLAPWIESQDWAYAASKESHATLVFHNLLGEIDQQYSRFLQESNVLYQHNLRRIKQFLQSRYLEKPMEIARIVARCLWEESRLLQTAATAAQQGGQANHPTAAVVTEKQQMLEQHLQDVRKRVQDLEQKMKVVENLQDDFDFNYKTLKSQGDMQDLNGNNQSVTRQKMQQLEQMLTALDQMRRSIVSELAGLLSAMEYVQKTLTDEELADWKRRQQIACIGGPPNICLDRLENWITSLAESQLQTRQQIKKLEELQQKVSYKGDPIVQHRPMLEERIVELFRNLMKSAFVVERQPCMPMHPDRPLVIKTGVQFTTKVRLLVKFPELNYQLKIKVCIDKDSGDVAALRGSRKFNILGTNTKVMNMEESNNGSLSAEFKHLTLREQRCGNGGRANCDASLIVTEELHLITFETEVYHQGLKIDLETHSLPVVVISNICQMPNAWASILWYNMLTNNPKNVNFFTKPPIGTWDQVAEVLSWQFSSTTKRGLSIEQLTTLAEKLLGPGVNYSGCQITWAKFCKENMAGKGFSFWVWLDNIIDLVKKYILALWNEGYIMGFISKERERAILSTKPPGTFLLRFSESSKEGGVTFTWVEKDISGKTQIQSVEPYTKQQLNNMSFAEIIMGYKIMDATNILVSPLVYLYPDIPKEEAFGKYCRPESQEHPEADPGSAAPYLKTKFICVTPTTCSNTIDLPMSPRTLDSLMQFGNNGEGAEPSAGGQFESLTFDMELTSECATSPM
structure (smiles),measurement,setting,value
C[C@H](CC[C@@H](O)C(C)(C)O)[C@H]1CC[C@@]2(C)[C@@H]3CC=C4[C@@H](CC[C@H](O)C4(C)C)[C@]3(C)[C@H](OC(=O)Cn3cc(-c4cccc(Cl)c4)nn3)C[C@]12C,viability at 3.75 µM,A549 [1],94.9%
same,inhibition,A549 [2],Active
same,Activity,A549 [3],1.53%
same,Activity,A549 [4],Dose-Dependent Effect
same,Activity,A549 [5],0.79%
same,Activity,A549 [6],11.25%
same,inhibition,[7],Dose-Dependent Effect
same,Activity,A549 [8],72.72%
same,inhibition at 30 µM,A549 [9],90.2%
same,viability at 7.5 µM,A549 [10],91.7%
same,Activity,A549 [11],60.04%
same,Activity,A549 [12],28.46%
same,Activity,A549 [13],30.62%
same,Activity,A549 [14],16.03%
same,Activity,A549 [15],3.66%
same,inhibition at 30 µM,NCI-H460,33.8%
same,Activity,A549 [16],1.27%
same,Activity,A549 [17],4.8%
same,viability at 15 µM,A549 [18],91.7%
same,Activity,A549 [19],11.5%
same,Activity,A549 [20],Dose-Dependent Effect
same,Activity,A549 [21],3.37%
same,Activity,A549 [22],13.93%
same,IC50,A549 [23],4.47 µM
same,Activity,A549 [24],55.45%
same,Activity,A549 [25],Dose-Dependent Effect
same,Activity,A549 [26],2.07%
same,Activity,A549 [27],2.28%
same,Activity,A549 [28],1.92%
